The target of assay [1] is T1, BRD4 Bromodomain 1 (BRD4 BD1) (Homo sapiens, UniProt O60885).
T1 construct: 44-168 and BRD4 BD2
The assay can be described thus: AlphaScreen binding assay, BRD4 BD1. As to conditions: His-tagged BRD4 BD1 50 nM, biotinylated H4 (1-21) K5/8/12/16 tetra-acetylated peptide 50 nM, compounds listed under IC50 range headings. On the procedure: The binding of Example compounds to BRD4 Bromodomain 1 and BRD4 Bromodomain 2 was assessed using 384-well AlphaScreen assay technology. His-epitope tagged BRD4 BD144-168 and BRD4 BD2333-460 were cloned, expressed, and purified to homogeneity. BRD4 BD1 and BRD4 BD2 binding and inhibition was assessed by monitoring the engagement of biotinylated Histone H4 (1-21) K5/8/12/16 tetra-acetylated peptide with the targets using the AlphaScreen technology (PerkinElmer). Specifically, in a 384-well black or white flat bottom plate, BRD4 BD1 (50 nM final) or BRD4 BD2 (100 nM final) was combined with peptide (50 nM final for BD1 or 100 nM final for BD2) in 50 mM HEPES (pH 7.3), 100 mM NaCl, 0.1% (w/v) BSA, and 0.01% (w/v) Triton X-100 either in the presence of DMSO (final 1.25% DMSO) or compound dilution series in DMSO. Alpha streptavidin donor beads and Nickel-chelate acceptor beads were added to a final concentration of 10 μg/ml each. After a minimum of 1 hour equilibration, plates were read on a BMG PHERAstar FS multi-label reader (BMG LabTech). The half maximal inhibitory concentration (IC50) values were calculated using IDBS Activity Base software with a four parameter logistic curve fit by the equation y=A+((B−A)/(1+((C/x)^D))), wherein A denotes the bottom plateau of the curve, B denotes the top plateau of the curve, C denotes the x value at the middle of the curve, D denotes the slope factor, x denotes the original known x values, and y denotes the original known y values. Data was fitted using the Levenburg Marquardt algorithm.
Background: In Alpha technology, singlet oxygen from a donor bead excites a nearby acceptor bead.

Assay [2] concerns acute myelocytic leukemia (AML) cell line MV4-11. The assay can be described thus: Oncology cell growth assay (3-day proliferation, CellTiter-Glo). The assay is classed as cell-based. Conditions: Homo sapiens, MV4-11, 72 h, MV4-11 cells, 3000 cells/well, compounds listed under IC50 range headings, read-out: MV411 IC50 (gIC50, inhibition of proliferation). How it is done:
The impact of Example compounds on cancer cell proliferation was determined using the acute myelocytic leukemia (AML) cell line MV4-11 (ATCC) in a 3-day proliferation assay. MV4-11 cells were maintained in RPMI 1640 media supplemented with 10% FBS at 37° C. and an atmosphere of 5% CO2. For compound testing, compound dilutions series were prepared in DMSO via a 3-fold serial dilution from 2 mM to 0.001 mM in 384-well white flat bottom plates. The final compound concentrations in the wells were 10, 3.3, 1.1, 0.37, 0.12, 0.041, 0.013 and 0.0045 μM. MV4-11 cells were plated at a density of 3000 cells/well in final volume of 50 μl culture media and incubated for 72 hours. […] Luminescent signal from the CellTiter-Glo assay was read on an EnVision multilabel plate reader (PerkinElmer). Values for the concentration that inhibited cell growth by 50% (gIC50) between the DMSO control and background control (no cells) were determined using IDBS Activity Base software with a four parameter logistic curve fit by the equation y=A+((B−A)/(1+((C/x)^D))), wherein A denotes the bottom plateau of the curve, B denotes the top plateau of the curve, C denotes the x value at the middle of the curve, D denotes the slope factor, x denotes the original known x values, and y denotes the original known y values. Data was fitted using the Levenburg Marquardt algorithm.
For orientation: Cellular ATP, detected with luciferase, serves as a proxy for viable cell number.

This note sets out measurements from patent US10611750B2, “Tetrahydroquinoline compositions as bet bromodomain inhibitors” (FORMA Therapeutics, Inc., priority 2013, dated 2020).

SMILES strings stand for the structures. pIC50: −log10 of the molar value.

Regarding `C[C@H]1CCc2c(ccc(-n3cc(C4CCNCC4)cn3)c2Oc2ccccc2)N1C(=O)C1CC1` [I-348, (S)-cyclopropyl(2-methyl-5-phenoxy-6-(4-(piperidin-4-yl)-1H-pyrazol-1-yl)-3,4-dihydroquinolin-1(2H)-yl)methanone], the pIC50 in assay [1] was 5.00 to 6.00; in assay [2], over 6.30.

For the molecule `C[C@H]1CCc2c(ccc(-c3ncc(C4CCNCC4)[nH]3)c2OC2CCC2)N1C(=O)C1CC1` [I-328, (S)-(5-cyclobutoxy-2-methyl-6-(5-(piperidin-4-yl)-1H-imidazol-2-yl)-3,4-dihydroquinolin-1(2H)-yl)(cyclopropyl)methanone], the pIC50 was 5.00 to 6.00 in assay [1] and over 6.30 in assay [2].

For `C[C@H]1CCc2c(ccc(-c3cnn(C4CC4)c3NS(C)(=O)=O)c2OC2CCC2)N1C(=O)C1CC1` [I-300, N-(4-((2S)-5-cyclobutoxy-1-(cyclopropanecarbonyl)-2-methyl-1,2,3,4-tetrahydroquinolin-6-yl)-1-cyclopropyl-1H-pyrazol-5-yl)methanesulfonamide], the pIC50 in assay [1] was at most 5.00; in assay [2], under 6.00.

For `C[C@H]1CCc2c(ccc(-c3cnn([C@@H]4CCNC[C@@H]4F)c3)c2OC2CCC2)N1C(=O)C1CC1` [I-369, (2S)-5-cyclobutoxy-1-cyclopropanecarbonyl-6-{1-[(3S,4R)-3-fluoropiperidin-4-yl]-1H-pyrazol-4-yl}-2-methyl-1,2,3,4-tetrahydroquinoline], the pIC50 in assay [1] was 6.00 to 7.00; in assay [2], over 6.30.

As for `COC(=O)N1c2ccc(-c3cnn(C4CC(O)C4)c3)c(OC3CCC3)c2CC[C@@H]1C` (stereo partly drawn) [I-302, (S)-methyl 5-cyclobutoxy-6-(1-(3-hydroxycyclobutyl)-1H-pyrazol-4-yl)-2-methyl-3,4-dihydroquinoline-1(2H)-carboxylate], the values for the pIC50 in assay [1] and in assay [2] were 6.00 to 7.00 and over 6.30, respectively.

For `C[C@H]1CCc2c(ccc(-c3cnn(C4CCCS(=O)(=O)C4)c3)c2OC2CCC2)N1C(=O)C1CC1` (some centres unmarked) [I-508], the pIC50 is 6.00 to 7.00 in assay [1] and over 6.30 in assay [2].

Take `COC(=O)N1c2ccc(-c3cnn(C4CCNC(=O)C4)c3)c(OC3CCC3)c2CC[C@@H]1C` (stereo partly drawn) [I-296, (2S)-methyl 5-cyclobutoxy-2-methyl-6-(1-(2-oxopiperidin-4-yl)-1H-pyrazol-4-yl)-3,4-dihydroquinoline-1(2H)-carboxylate]: the pIC50 in assay [1] is 6.00 to 7.00; in assay [2] it was over 6.30.

`C[C@H]1CCc2c(ccc(-c3ccnn3C3CCNCC3)c2Oc2ccccc2)N1C(=O)C1CC1` [I-308, cyclopropyl((2S)-2-methyl-5-phenoxy-6-(1-(piperidin-4-yl)-1H-pyrazol-5-yl)-3,4-dihydroquinolin-1(2H)-yl)methanone]: the pIC50 in assay [1] is at most 5.00; in assay [2] it was under 6.00.

As to `COC(=O)N1c2ccc(C3CC3)c(Oc3ccccc3)c2CC[C@@H]1C` [I-244, (S)-methyl 6-cyclopropyl-2-methyl-5-phenoxy-3,4-dihydroquinoline-1(2H)-carboxylate], the results for the pIC50 in assay [1] and in assay [2] were at most 5.00 and under 6.00, respectively.

Regarding `C[C@H]1CCc2c(ccc(-c3cnn(C4CCNCC4)n3)c2OC2CCC2)N1C(=O)C1CC1` [I-309, (S)-(5-cyclobutoxy-2-methyl-6-(2-(piperidin-4-yl)-2H-1,2,3-triazol-4-yl)-3,4-dihydroquinolin-1(2H)-yl)(cyclopropyl)methanone], the pIC50 was 5.00 to 6.00 in assay [1] and over 6.30 in assay [2].

For the molecule `COC(=O)N1c2ccc(-c3cnn(C4CS(=O)(=O)C4)c3)c(Oc3ccc(F)cc3)c2CC[C@@H]1C` [I-223, methyl (S)-6-(1-(1,1-dioxidothietan-3-yl)-1H-pyrazol-4-yl)-5-(4-fluorophenoxy)-2-methyl-3,4-dihydroquinoline-1(2H)-carboxylate], the pIC50 in assay [1] is 6.00 to 7.00; in assay [2] it was over 6.30.

With `C[C@H]1CCc2c(OC3CCC3)c(-c3cn(C)nn3)cc(F)c2N1C(=O)C1CC1` [I-124, (S)-(5-cyclobutoxy-8-fluoro-2-methyl-6-(1-methyl-1H-1,2,3-triazol-4-yl)-3,4-dihydroquinolin-1 (2H)-yl)(cyclopropyl)methanone], the figures for the pIC50 in assay [1] and in assay [2] were 6.00 to 7.00 and 6.00 to 6.30, respectively.

`COC(=O)N1c2ccc(-c3cnn(C4CCN(C)CC4OC)c3)c(OC3CCC3)c2CC[C@@H]1C` (stereo partly drawn) [I-292, (2S)-methyl 5-cyclobutoxy-6-(1-(3-methoxy-1-methylpiperidin-4-yl)-1H-pyrazol-4-yl)-2-methyl-3,4-dihydroquinoline-1 (2H)-carboxylate]: the pIC50 is 6.00 to 7.00 in assay [1] and over 6.30 in assay [2].

With `CC(=O)N1c2ccc(-c3cn(C)nn3)c(Oc3ccccc3)c2CC[C@@H]1C` [I-233, (S)-1-(2-methyl-6-(1-methyl-1H-1,2,3-triazol-4-yl)-5-phenoxy-3,4-dihydroquinolin-1(2H)-yl)ethanone], the figures for the pIC50 in assay [1] and in assay [2] were 6.00 to 7.00 and over 6.30, respectively.

For `COC(=O)N1c2ccc(-c3cnn(C4CCNCC4)c3)c(Oc3ccc(F)c(F)c3)c2CC[C@@H]1C` [I-176, (S)-methyl 5-(3,4-difluorophenoxy)-2-methyl-6-(1-(piperidin-4-yl)-1H-pyrazol-4-yl)-3,4-dihydroquinoline-1(2H)-carboxylate], the results for the pIC50 in assay [1] and in assay [2] were 6.00 to 7.00 and over 6.30, respectively.

Consider `C[C@H]1CCc2c(ccc(-c3cnn(C4CCNCC4)c3)c2Oc2cc(F)cc(F)c2)N1C(=O)C1CC1` [I-183, (S)-cyclopropyl(5-(3,5-difluorophenoxy)-2-methyl-6-(1-(piperidin-4-yl)-1H-pyrazol-4-yl)-3,4-dihydroquinolin-1(2H)-yl)methanone], for which the pIC50 in assay [1] was 6.00 to 7.00; in assay [2] it was over 6.30.

Take `COc1cccc(Oc2c(-c3cnn(C4CCNCC4)c3)ccc3c2CC[C@H](C)N3C(=O)C2CC2)c1` [I-195, (S)-cyclopropyl(5-(3-methoxyphenoxy)-2-methyl-6-(1-(piperidin-4-yl)-1H-pyrazol-4-yl)-3,4-dihydroquinolin-1(2H)-yl)methanone]: the pIC50 is 6.00 to 7.00 in assay [1] and over 6.30 in assay [2].

On to `C[C@H]1CCc2c(ccc(-c3ccn(C4CCNCC4)n3)c2Oc2ccccc2)N1C(=O)C1CC1` [I-307, (S)-cyclopropyl(2-methyl-5-phenoxy-6-(1-(piperidin-4-yl)-1H-pyrazol-3-yl)-3,4-dihydroquinolin-1(2H)-yl)methanone], for which the pIC50 in assay [1] is 6.00 to 7.00; in assay [2], over 6.30.

With `COC(=O)N1c2c(F)cc(-c3cn(C)nn3)c(OC3CCC3)c2CC[C@@H]1C` [I-125, (S)-methyl 5-cyclobutoxy-8-fluoro-2-methyl-6-(1-methyl-1H-1,2,3-triazol-4-yl)-3,4-dihydroquinoline-1(2H)-carboxylate], the pIC50 was 5.00 to 6.00 in assay [1] and under 6.00 in assay [2].

For `COC(=O)N1c2ccc(-c3csc(N4CCNCC4)n3)c(OC3CCC3)c2CC[C@@H]1C` [I-316, (S)-methyl 5-cyclobutoxy-2-methyl-6-(2-(piperazin-1-yl)thiazol-4-yl)-3,4-dihydroquinoline-1(2H)-carboxylate], the pIC50 in assay [1] is 6.00 to 7.00; in assay [2] it was over 6.30.

For the molecule `COC(=O)N1c2ccc(-c3cnn(C4CCNCC4)c3)c(Oc3ccccc3OC)c2CC[C@@H]1C` [I-197, (S)-methyl 5-(2-methoxyphenoxy)-2-methyl-6-(1-(piperidin-4-yl)-1H-pyrazol-4-yl)-3,4-dihydroquinoline-1(2H)-carboxylate], the pIC50 in assay [1] was 6.00 to 7.00; in assay [2], over 6.30.

Regarding `C[C@H]1CCc2c(ccc(-c3cnn(C4CCNCC4)c3)c2Oc2ccccn2)N1C(=O)C1CC1` [I-95, (S)-cyclopropyl(2-methyl-6-(1-(piperidin-4-yl)-1H-pyrazol-4-yl)-5-(pyridin-2-yloxy)-3,4-dihydroquinolin-1(2H)-yl)methanone], the pIC50 is 5.00 to 6.00 in assay [1] and over 6.30 in assay [2].
